pIC50: −log10 of the molar value. Activity calls are given as the source filed them. The rule behind the calls is not given here.
Tests used:
Plasmodium falciparum [1] = test: Antimalarial activity against CQ-sensitive Plasmodium falciparum 3D7 incubated for 72 hrs by SYBR Green-1 dye based fluorescence assay; type: functional, organism-based; settings: Plasmodium falciparum, 3D7, 72 h
Plasmodium chabaudi = test: Antimalarial activity against Plasmodium chabaudi ASS infected in NIH mouse assessed as inhibition of parasitemia at 10 mg/kg, po qd for 4 days starting from 4 hrs post-parasite inoculation and measured at 24 hrs after last-drug treatment by Peter's 4-day suppressive test relative to control; type: functional; settings: 96 h
[2] = Plasma concentration in NIH mouse infected with Plasmodium chabaudi ASS at 10 mg/kg, po qd for 4 days starting from 4 hrs post-parasite inoculation and measured at 1 hr post-dosing on day 4 by LC/MS analysis; type: ADME, organism-based; settings: dose 10 mg/kg/day, time 4 day
[3] = Plasma concentration in NIH mouse infected with Plasmodium chabaudi ASS at 10 mg/kg, po qd for 4 days starting from 4 hrs post-parasite inoculation and measured at 6 hrs post-dosing on day 4 by LC/MS analysis; type: ADME, organism-based; settings: dose 10 mg/kg/day, time 4 day
[4] = (§1) Plasma concentration in NIH mouse infected with Plasmodium chabaudi ASS at 10 mg/kg, po qd for 4 days starting from 4 hrs post-parasite inoculation and measured at 24 hrs post-dosing on day 4 by LC/MS analysis; type: ADME, organism-based; settings: dose 10 mg/kg/day, time 4 day
[5] = biological target: Voltage-gated inwardly rectifying potassium channel KCNH2 (Homo sapiens, UniProt Q12809); test: Displacement of Tracer Red from human ERG incubated for 2 hrs by fluorescence polarization assay
Cytochrome P450 3A4 = Cytochrome P450 3A4 (Homo sapiens, UniProt P08684); test: Inhibition of recombinant human CYP3A4 expressed in baculovirus infected insect cells using midazolam as substrate incubated for 30 mins in presence of NADPH-regenerating system by fluorescence based assay; type: ADME
hERG = test: Selectivity ratio of IC50 for human ERG incubated for 2 hrs by fluorescence polarization assay to IC50 for CQ-sensitive Plasmodium falciparum 3D7 incubated for 72 hrs by SYBR Green-1 dye based fluorescence assay; type: toxicity; settings: read-out: Ratio IC50
[6] = Apparent clearance in KM mouse at 2 mg/kg, iv administered as cassette dosing measured up to 24 hrs by LC/MS analysis; type: ADME, organism-based; settings: in vivo
Cytochrome P450 2C9 = Cytochrome P450 2C9 (Homo sapiens, UniProt P11712); test: Inhibition of recombinant human CYP2C9 expressed in baculovirus infected insect cells using tolbutamide as substrate incubated for 30 mins in presence of NADPH-regenerating system by fluorescence based assay; type: ADME
Plasmodium falciparum [7] = test: Antimalarial activity against multidrug resistant Plasmodium falciparum Dd2 incubated for 72 hrs by SYBR Green-1 dye based fluorescence assay; type: functional, organism-based; settings: Dd2, 72 h
[8] = as §1, with “Ratio of IC50 for antimalarial activity against CQ-sensitive Plasmodium falciparum 3D7 incubated for 72 hrs by SYBR Green-1 dye based fluorescence assay to Plasma” for “Plasma”
Cytochrome P450 1A2 = biological target: T1, Cytochrome P450 1A2 (Homo sapiens, UniProt P05177); test: Inhibition of recombinant human CYP1A2 expressed in baculovirus infected insect cells using phenacetin as substrate incubated for 30 mins in presence of NADPH-regenerating system by fluorescence based assay; type: ADME
T1 sequence (P05177 whole entry): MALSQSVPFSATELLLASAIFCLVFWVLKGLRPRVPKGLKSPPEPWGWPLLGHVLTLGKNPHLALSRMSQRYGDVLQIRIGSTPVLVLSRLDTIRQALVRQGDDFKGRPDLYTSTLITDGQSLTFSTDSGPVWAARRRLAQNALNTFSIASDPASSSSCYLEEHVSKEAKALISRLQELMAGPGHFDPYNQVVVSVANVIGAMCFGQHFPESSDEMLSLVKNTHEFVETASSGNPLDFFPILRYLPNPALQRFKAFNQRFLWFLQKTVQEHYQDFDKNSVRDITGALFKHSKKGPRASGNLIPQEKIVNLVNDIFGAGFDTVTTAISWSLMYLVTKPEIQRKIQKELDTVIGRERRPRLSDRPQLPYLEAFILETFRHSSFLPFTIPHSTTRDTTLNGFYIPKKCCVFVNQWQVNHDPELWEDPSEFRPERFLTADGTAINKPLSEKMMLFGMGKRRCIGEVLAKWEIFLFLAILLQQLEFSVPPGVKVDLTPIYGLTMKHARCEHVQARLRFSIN

HepG2 = test: Cytotoxicity against human HepG2 cells assessed as cell viability at 5 uM incubated for 72 hrs by PrestoBlue cell viability reagent based assay; settings: hepg2, 72 h
[9] = Apparent volume of distribution in KM mouse at 2 mg/kg, iv administered as cassette dosing measured up to 24 hrs by LC/MS analysis; type: ADME, organism-based; settings: in vivo, read-out: Vz
Cytochrome P450 2D6 = Cytochrome P450 2D6 (Homo sapiens, UniProt P10635); test: Inhibition of recombinant human CYP2D6 expressed in baculovirus infected insect cells using dextromethorphan as substrate incubated for 30 mins in presence of NADPH-regenerating system by fluorescence based assay; type: ADME
Cytochrome P450 2C19 = Cytochrome P450 2C19 (Homo sapiens, UniProt P33261); test: Inhibition of recombinant human CYP2C19 expressed in baculovirus infected insect cells using s-mephenytoin as substrate incubated for 30 mins in presence of NADPH-regenerating system by fluorescence based assay; type: ADME
[10] = biological target: Beta-secretase 1 (Homo sapiens) (UniProt P56817); test: Inhibition of recombinant human BACE1 using Mca-SEVNLDAEFRK(Dnp)RR-NH2 fluorogenic peptide as substrate incubated for 60 mis by fluorescence based assay; settings: time 60.0 min
Plasmodium falciparum [11] = test: Inhibition of Plasmodium falciparum plasmepsin 4 using PM-2 peptide substrate incubated for 60 mis by fluorescence based assay; settings: time 60.0 min
[12] = Half life in KM mouse at 2 mg/kg, iv administered as cassette dosing measured up to 24 hrs by LC/MS analysis; type: ADME, organism-based; settings: in vivo
[13] = biological target: Plasmepsin II (Plasmodium falciparum) (UniProt P46925); test: Inhibition of Plasmodium falciparum plasmepsin 2 using PM-2 peptide substrate incubated for 60 mis by fluorescence based assay; settings: time 60.0 min
Chain of Plasmepsin II (Plasmodium falciparum) (P46925 125-453 limits assumed): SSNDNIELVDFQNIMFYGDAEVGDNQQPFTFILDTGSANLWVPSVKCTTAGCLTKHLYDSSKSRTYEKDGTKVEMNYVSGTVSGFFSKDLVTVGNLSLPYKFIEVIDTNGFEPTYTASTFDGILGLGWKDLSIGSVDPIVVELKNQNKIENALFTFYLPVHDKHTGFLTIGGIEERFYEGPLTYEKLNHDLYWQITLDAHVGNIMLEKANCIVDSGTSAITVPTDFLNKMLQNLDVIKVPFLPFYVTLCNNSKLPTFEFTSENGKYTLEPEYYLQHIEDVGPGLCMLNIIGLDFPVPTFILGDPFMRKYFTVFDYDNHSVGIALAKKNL

Chain of Cytochrome P450 2D6 (P10635 whole entry): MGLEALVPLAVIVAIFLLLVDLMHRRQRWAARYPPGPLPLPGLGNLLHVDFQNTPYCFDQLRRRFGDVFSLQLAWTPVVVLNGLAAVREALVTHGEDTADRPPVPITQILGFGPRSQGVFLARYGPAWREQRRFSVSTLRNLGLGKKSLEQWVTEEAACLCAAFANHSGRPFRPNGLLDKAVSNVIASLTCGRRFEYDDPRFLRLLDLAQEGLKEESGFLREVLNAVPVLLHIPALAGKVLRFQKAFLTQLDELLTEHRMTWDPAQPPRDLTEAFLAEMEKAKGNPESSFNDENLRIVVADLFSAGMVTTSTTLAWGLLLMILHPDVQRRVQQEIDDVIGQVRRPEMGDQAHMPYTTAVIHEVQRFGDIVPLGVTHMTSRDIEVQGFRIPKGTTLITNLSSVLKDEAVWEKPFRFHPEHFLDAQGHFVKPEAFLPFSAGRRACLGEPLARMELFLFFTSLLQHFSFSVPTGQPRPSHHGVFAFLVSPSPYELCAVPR
Chain of Beta-secretase 1 (Homo sapiens) (P56817 whole entry): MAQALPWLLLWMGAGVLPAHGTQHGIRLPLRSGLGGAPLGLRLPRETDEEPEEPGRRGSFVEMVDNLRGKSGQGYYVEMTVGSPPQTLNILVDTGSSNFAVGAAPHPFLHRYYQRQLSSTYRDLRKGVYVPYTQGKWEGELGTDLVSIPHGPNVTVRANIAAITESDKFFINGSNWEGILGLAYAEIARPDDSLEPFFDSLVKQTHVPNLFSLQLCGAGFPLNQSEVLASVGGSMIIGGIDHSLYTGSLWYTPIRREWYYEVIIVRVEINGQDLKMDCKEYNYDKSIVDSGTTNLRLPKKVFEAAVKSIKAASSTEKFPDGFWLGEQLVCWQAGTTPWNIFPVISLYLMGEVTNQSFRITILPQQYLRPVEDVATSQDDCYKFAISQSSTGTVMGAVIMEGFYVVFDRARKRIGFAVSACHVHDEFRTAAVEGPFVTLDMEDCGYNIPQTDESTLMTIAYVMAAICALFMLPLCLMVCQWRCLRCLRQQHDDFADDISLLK
Chain of Cytochrome P450 2C19 (P33261 whole entry): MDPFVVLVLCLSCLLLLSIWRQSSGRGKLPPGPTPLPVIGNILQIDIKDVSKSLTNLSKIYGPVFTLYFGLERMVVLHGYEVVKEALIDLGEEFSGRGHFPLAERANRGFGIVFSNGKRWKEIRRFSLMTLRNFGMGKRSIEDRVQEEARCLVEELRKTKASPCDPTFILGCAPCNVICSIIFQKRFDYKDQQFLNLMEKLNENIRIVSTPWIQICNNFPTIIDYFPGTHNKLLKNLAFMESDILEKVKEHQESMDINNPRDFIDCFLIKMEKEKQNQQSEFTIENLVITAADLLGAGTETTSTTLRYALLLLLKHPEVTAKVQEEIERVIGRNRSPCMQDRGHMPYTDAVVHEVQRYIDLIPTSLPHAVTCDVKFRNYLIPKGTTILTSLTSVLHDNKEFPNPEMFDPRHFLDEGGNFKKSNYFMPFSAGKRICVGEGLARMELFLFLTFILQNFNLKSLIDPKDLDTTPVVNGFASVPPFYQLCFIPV
Chain of Cytochrome P450 2C9 (P11712 whole entry): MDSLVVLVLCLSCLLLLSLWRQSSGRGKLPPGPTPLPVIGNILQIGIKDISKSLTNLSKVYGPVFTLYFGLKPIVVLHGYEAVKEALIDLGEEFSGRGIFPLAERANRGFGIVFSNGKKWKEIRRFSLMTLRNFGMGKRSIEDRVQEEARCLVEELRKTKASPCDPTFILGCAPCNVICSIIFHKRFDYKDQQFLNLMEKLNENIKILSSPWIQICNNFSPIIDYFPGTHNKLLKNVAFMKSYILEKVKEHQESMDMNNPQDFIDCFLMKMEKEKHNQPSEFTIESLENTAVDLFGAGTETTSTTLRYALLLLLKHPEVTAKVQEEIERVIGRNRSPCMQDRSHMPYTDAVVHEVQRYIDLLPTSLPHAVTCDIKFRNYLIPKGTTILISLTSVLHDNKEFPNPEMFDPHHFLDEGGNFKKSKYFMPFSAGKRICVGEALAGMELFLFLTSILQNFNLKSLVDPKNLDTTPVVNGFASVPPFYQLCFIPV
Chain of Voltage-gated inwardly rectifying potassium channel KCNH2 (Q12809 whole entry): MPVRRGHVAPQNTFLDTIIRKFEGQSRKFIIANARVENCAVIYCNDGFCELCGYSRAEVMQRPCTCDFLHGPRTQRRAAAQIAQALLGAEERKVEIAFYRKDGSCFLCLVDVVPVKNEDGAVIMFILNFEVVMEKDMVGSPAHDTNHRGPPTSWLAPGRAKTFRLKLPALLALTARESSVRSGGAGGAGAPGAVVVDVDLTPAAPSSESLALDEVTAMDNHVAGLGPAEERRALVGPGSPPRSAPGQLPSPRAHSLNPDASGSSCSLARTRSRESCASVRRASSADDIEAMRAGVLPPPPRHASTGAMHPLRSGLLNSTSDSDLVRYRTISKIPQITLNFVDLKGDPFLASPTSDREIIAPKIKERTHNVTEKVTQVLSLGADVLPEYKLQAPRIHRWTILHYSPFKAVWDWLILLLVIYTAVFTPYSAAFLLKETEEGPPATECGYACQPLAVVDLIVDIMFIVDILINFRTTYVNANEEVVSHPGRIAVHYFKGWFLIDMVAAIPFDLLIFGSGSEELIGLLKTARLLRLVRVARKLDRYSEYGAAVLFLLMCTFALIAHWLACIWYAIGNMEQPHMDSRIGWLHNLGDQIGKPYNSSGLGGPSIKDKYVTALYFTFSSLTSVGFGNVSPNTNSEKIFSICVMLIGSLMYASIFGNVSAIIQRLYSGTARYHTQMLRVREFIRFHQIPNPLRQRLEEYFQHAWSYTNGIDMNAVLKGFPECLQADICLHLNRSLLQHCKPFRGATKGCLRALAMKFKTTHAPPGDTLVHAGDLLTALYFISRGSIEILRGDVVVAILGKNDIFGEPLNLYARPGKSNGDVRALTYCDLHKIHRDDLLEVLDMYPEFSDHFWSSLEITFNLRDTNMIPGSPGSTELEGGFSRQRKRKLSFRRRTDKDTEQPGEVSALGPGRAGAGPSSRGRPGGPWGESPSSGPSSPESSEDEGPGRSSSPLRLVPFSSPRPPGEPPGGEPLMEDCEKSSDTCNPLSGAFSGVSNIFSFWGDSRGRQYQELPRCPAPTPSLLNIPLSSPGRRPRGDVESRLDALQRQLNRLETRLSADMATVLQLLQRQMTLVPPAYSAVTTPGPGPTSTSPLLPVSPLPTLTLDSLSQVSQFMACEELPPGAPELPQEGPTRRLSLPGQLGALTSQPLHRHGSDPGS
Chain of Cytochrome P450 3A4 (P08684 whole entry): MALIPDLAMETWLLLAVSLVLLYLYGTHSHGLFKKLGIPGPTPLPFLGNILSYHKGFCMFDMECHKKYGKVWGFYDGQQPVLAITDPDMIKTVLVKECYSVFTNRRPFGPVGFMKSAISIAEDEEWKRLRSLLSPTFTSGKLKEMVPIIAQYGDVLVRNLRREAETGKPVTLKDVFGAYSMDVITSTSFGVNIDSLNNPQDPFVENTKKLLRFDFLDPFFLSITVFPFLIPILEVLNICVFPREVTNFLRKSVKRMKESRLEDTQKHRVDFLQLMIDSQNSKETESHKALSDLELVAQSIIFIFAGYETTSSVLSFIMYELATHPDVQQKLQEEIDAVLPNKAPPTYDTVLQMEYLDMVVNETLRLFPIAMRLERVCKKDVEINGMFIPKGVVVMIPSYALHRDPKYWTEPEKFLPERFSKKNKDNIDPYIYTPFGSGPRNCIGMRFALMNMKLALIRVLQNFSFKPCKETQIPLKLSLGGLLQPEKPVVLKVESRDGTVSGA

CN(C)c1ccc(CC(=O)N[C@@H]2CNC[C@H]2c2cc3ccccc3o2)cc1
pIC50 (Plasmodium falciparum [1]): 6.85

COc1cccc(CC(=O)N[C@H]2CNC[C@@H]2c2ccc(C(F)(F)F)cc2)c1 (racemic)
pIC50 (Plasmodium falciparum [1]): 6.12

CN(C)c1ccc(CC(=O)N[C@@H]2CNC[C@H]2c2cccc(S(F)(F)(F)(F)F)c2)cc1
pIC50 (Plasmodium falciparum [1]): 7.23

CN(C)c1ccc(CC(=O)N[C@@H]2CNC[C@H]2c2ccc(C(F)(F)C(F)(F)F)nc2)cc1
pIC50 (Plasmodium falciparum [1]): 7.20

CN(C)c1ccc(CC(=O)N[C@@H]2CNC[C@H]2c2cc3ccccc3s2)cc1
pIC50 (Plasmodium falciparum [1]): 6.82

CN(C)c1ccc(CC(=O)N[C@@H]2CNC[C@H]2c2ccc(-c3ccccc3)cc2)cc1
pIC50 (Plasmodium falciparum [1]): 5.34

CC(C)c1ccc(CC(=O)N[C@H]2CNC[C@@H]2c2ccc(C(F)(F)F)cc2)cc1 (racemic)
pIC50 (Plasmodium falciparum [1]): 6.22

COc1ccc(CC(=O)N[C@H]2CNC[C@@H]2c2ccc(C(F)(F)F)cc2)cc1 (racemic)
pIC50 (Plasmodium falciparum [1]): 6.46

COc1ccc(CC(=O)N[C@H]2CNC[C@@H]2c2ccc(C(F)(F)F)cc2)cn1 (racemic)
pIC50 (Plasmodium falciparum [1]): 5.66

CCN(CC)CCCC(C)Nc1ccnc2cc(Cl)ccc12 (configuration not stated) [CHLOROQUINE]
inhibition in vivo at 10 mg/kg/day (Plasmodium chabaudi): 99.9% | concentration at 96 h [2]: 80.7 nM | concentration at 96 h [3]: 83.4 nM | concentration at 96 h [4]: 68.6 nM

CN(C)c1ccc(CC(=O)N[C@H]2CNC[C@@H]2c2ccc(C(F)(F)F)nc2)cc1 (racemic)
pIC50 (Plasmodium falciparum [1]): 6.68

CN(C)c1ccc(CC(=O)N[C@@H]2CNC[C@H]2c2ccc(C(F)(F)F)c(Cl)c2)cc1
pIC50 (Plasmodium falciparum [1]): 6.92

Nc1ccc(CC(=O)N[C@H]2CNC[C@@H]2c2ccc(C(F)(F)F)cc2)cc1 (racemic)
pIC50 (Plasmodium falciparum [1]): 5.54

CN(C)c1ccc(CC(=O)N[C@@H]2CNC[C@H]2c2ccc(S(F)(F)(F)(F)F)cc2)cc1
pIC50 (Plasmodium falciparum [1]): 7.04 | pIC50 [5]: 5.59 | inhibition in vivo at 10 mg/kg/day (Plasmodium chabaudi): 65.3% | pIC50 (Cytochrome P450 3A4): 6.80 | concentration at 96 h [2]: 129 nM | selectivity ratio at 2 h (hERG): 28 | clearance [6]: 10.5 mL/min/kg | pIC50 (Cytochrome P450 2C9): 4.44 | pIC50 (Plasmodium falciparum [7]): 7.05 | Ratio [8]: 6 | pIC50 (Cytochrome P450 1A2): < 4.00 | Activity (HepG2): Non-Toxic | Vd [9]: 6.2 L/kg | pIC50 (Cytochrome P450 2D6): 4.05 | concentration at 96 h [3]: 119 nM | concentration at 96 h [4]: 14.9 nM | pIC50 (Cytochrome P450 2C19): 4.53 | inhibition [10]: inactive | inhibition (Plasmodium falciparum [11]): inactive | half-life [12]: 7 h | inhibition [13]: inactive

CN(C)c1ccc(CC(=O)N[C@@H]2CNC[C@H]2c2ccc(Br)cc2)cc1
pIC50 (Plasmodium falciparum [1]): 6.85

CN(C)c1ccc(CC(=O)N[C@@H]2CNC[C@H]2c2ccc(C(F)(F)F)cc2)cc1
pIC50 (Plasmodium falciparum [1]): 6.92 | pIC50 [5]: 5.23 | inhibition in vivo at 10 mg/kg/day (Plasmodium chabaudi): 61.2% | pIC50 (Cytochrome P450 3A4): 6.06 | concentration at 96 h [2]: 255 nM | selectivity ratio at 2 h (hERG): 49 | clearance [6]: 7.9 mL/min/kg | pIC50 (Cytochrome P450 2C9): 4.01 | pIC50 (Plasmodium falciparum [7]): 7.11 | Ratio [8]: 6 | pIC50 (Cytochrome P450 1A2): < 4.00 | Activity (HepG2): Non-Toxic | Vd [9]: 4.2 L/kg | pIC50 (Cytochrome P450 2D6): 4.61 | concentration at 96 h [3]: 181 nM | concentration at 96 h [4]: 7.4 nM | pIC50 (Cytochrome P450 2C19): 4.34 | inhibition [10]: inactive | inhibition (Plasmodium falciparum [11]): inactive | half-life [12]: 5.6 h | inhibition [13]: inactive

C[C@@H]1CC[C@H]2[C@@H](C)C(=O)O[C@@H]3O[C@@]4(C)CC[C@@H]1[C@]32OO4 [ARTEMISININ]
pIC50 (Plasmodium falciparum [1]): 7.48

CN(C)c1ccc(CC(=O)N[C@@H]2CNC[C@H]2c2cc3cc(Cl)ccc3o2)cc1
pIC50 (Plasmodium falciparum [1]): 6.00

Cc1ccc(CC(=O)N[C@H]2CNC[C@@H]2c2ccc(C(F)(F)F)cc2)nc1 (racemic)
pIC50 (Plasmodium falciparum [1]): 5.80
